Earlier results as cited in patent US20130149346A1, “DABIGATRAN ETEXILATE-CONTAINING PHARMACEUTICAL COMPOSITION” (ratiopharm GmbH Graf-Arco-Strasse 3, priority 2010, published 2013).

Conditions: in the acidic environment

pH-dependent solubility: greatly increased
Compound: CCCCCCOC(=O)NC(=N)c1ccc(NCc2nc3cc(C(=O)N(CCC(=O)OCC)c4ccccn4)ccc3n2C)cc1 [dabigatran etexilate, 3-[(2-{[4-(hexyloxycarbonylamino-imino-methyl)-phenylamino]-methyl}-1-methyl-1H-benzimidazole-5-carbonyl)-pyridine-2-yl-amino]-propionic acid ethyl ester]
